Experimental data reported in ChEMBL document CHEMBL4616608, “Discovery of a lead series of potent benzodiazepine 5-HT2C receptor agonists with high selectivity in functional and binding assays” (Bioorg Med Chem Lett, 2020).

Tests used:
in vivo [1] = settings: rat, plasma, po, 10 mg/kg
in vivo [2] = settings: rat, brain, po, 10 mg/kg
in vivo [3] = settings: rat, cerebrospinal fluid, po, 10 mg/kg

Q: With `CC1(C)CN2CCNCc3ccc(F)c1c32` as the compound, how does the concentration at 1 h (in vivo [1]) read?
A: 608 ng/mL

Q: And the concentration at 1 h (in vivo [2])?
A: 8860 ng/g

Q: What about the concentration at 1 h (in vivo [3]) of the same compound?
A: 170 ng/mL
